This note sets out measurements from US10611742B2, “4-oxo-4,5-dihydrothiazole derivative, preparation method and use thereof” (Institute of Pharmacology and Toxicology Academy of …, priority 2015, dated 2020).

Each structure is given as a SMILES string.

Assay type in all cases: cell-based
Series [1] relates to enterovirus EV71 (SZ-98 strain). In words: anti-EV71 activity, therapeutic effect on Vero cell (CPE inhibition, Celltiter Glo). The settings on record: EV71 (SZ-98 strain), therapeutic effect on Vero cell; read-out: IC50. As for the experimental part:
(§1) Test principle: Vero cell, MRC-5 cell, and RD cell were used as host of virus, respectively, and samples were tested for their inhibition of cytopathic effect (CPE) caused by virus.
(§2) 1. Virus strain: enterovirus EV71 (SZ-98 strain, provided by Chinese Center for Disease Control and Prevention), Vero cell (provided by the Cell Bank of Chinese Academy of Sciences), MRC-5 cell (provided by the Cell Bank of Chinese Academy of Sciences), and RD cell (provided by the Cell Bank of Chinese Academy of Sciences), were subjected to passage culture, respectively, and stored at −80° C.
(§3) 2. Sample treatment: a test sample (Compounds 1-14 and positive control agent) was dissolved in dimethyl sulfoxide (DMSO) to prepare a stock solution, which was stored at −20° C. The stock solution was diluted with DMEM medium (Gibco Company) containing 2% fetal bovine serum (Gibco Company) to prepare a 100 μM solution before use, and was 3-fold diluted with the medium to obtain 8 diluted concentrates.
(§4) 3. Positive control agent: Con1 (pitstop2) (purchased from AmyJet Scientific Inc., Abcam), a broad-spectrum antiviral inhibitor.
(§5) 4. Test method: • 4.1 Therapeutic effect: the cells were seeded on a 96-well culture plate, and cultured in a 5% CO2, 37° C. incubator for 24 h. About 100 TCID50 enterovirus EV71 was added to each well. After adsorption at 37° C. for 1 h, the virus solution was discarded, and a drug was added at different diluted concentrates, respectively. Meanwhile, virus control and cell control were set, and cultured at 37° C. […] The virus-inhibition rate of a sample at each concentration was calculated based on the chemiluminescent value, the sample concentration was used as abscissa, and the inhibition rate was used as ordinate, and S-Curve fitting was performed by using Origin software. Half maximal inhibitory concentration (IC50) of each sample for enterovirus EV71 was calculated based on the fitting results. Median toxic concentration (TC50) was determined by the same method. […] To each well, a drug was added at a different diluted concentration, then the cells were cultured at 37° C. for 2 h, and then the drug was discarded. About 100 TCID50 enterovirus EV71 was added to each well, adsorbed at 37° C. for 1.5 h, then the virus solution was discarded, and a maintenance medium free of drug was added. Meanwhile, virus control and cell control were set, and cultured at 37° C. […] The virus-inhibition rate of a sample at each concentration was calculated, and half maximal inhibitory concentration (IC50), median toxic concentration (TC50), and selection index (SI) of each sample for enterovirus EV71 were calculated. The methods for determining and calculating them were as described in Item 4.1

Series [2] shares this test system. Briefly: anti-EV71 activity, therapeutic effect on RD cell (CPE inhibition, Celltiter Glo). As for the experimental part:
as §1, §2, §3, §4, §5
(In ATP-based viability assays light output follows the ATP content of the culture.)

Series [3] has the same test system. Briefly: anti-EV71 activity, preventive effect on Vero cell (CPE inhibition). As for the experimental part: as §1, §2, §3, §4, §5
Series [4] is described as follows: median toxic concentration on RD cell. Conditions: human, RD cells; for CC50: read-out: TC50 (the source's name); for CC50 at 2 h: Table 2-2 (preventive effect), read-out: TC50. As for the experimental part:
as §2, §3, §5

Series [5] has as its system enterovirus EV71 (SZ-98 strain). Briefly: anti-EV71 activity, therapeutic effect on MRC-5 cell (CPE inhibition, Celltiter Glo). The settings on record: MRC5. As to the method: as §1, §2, §3, §4, §5
For series [6] the test system is unchanged. In words: anti-EV71 activity, preventive effect on RD cell (CPE inhibition). As to the method: as §1, §2, §3, §4, §5
Series [7] can be described thus: median toxic concentration on Vero cell. Conditions: African green monkey, Vero cells; for CC50: Table 1-1 (therapeutic effect), read-out: TC50 (the source's name); for CC50 at 2 h: Table 2-1 (preventive effect), read-out: TC50. As for the experimental part: as §2, §3, §5
The nature of series [8]: median toxic concentration on MRC-5 cell. The settings on record: human, MRC-5 cells, Table 1-2 (therapeutic effect), read-out: TC50 (the source's name). As to the method: as §2, §3, §5

As a reminder, the IC50 is the concentration at which inhibition is half-maximal. Take `O=C1N=C(NS(=O)(=O)c2cccc3ccccc23)S/C1=C\c1ccc(Cl)cc1Cl` [Compound 1, Naphthalene-1-sulfonic acid [5-(2,4-dichloro-benzylidene)-4-oxo-4,5-dihydro-thiazol-2-yl] amide]: the concentration for half-maximal inhibition (IC50) in series [1] was 7.41 µM; in series [2] (EV71 (SZ-98 strain)), over 7.41 µM; in series [3] it was over 7.41 µM; in series [5], over 7.41 µM; in series [6], over 7.41 µM. The CC50 in series [4] (Table 1-3 (therapeutic effect)) turned out to be 12.8 µM; in series [7], 10.7 µM; in series [8] it was 12.8 µM. Further, the CC50 at 2 h came to 12.8 µM in series [4] and 10.7 µM in series [7].
`COc1cc(/C=C2\SC(NS(=O)(=O)c3cccc4ccccc34)=NC2=O)ccc1O` [Compound 2, Naphthalene-1-sulfonic acid [5-(3-methoxy-4-hydroxy-benzylidene)-4-oxo-4,5-dihydro-thiazol-2-yl] amide]: the IC50 in series [1], in series [2] (EV71 (SZ-98 strain)), in series [3], in series [5] and in series [6] was over 7.41 µM each time. Moreover, the figures for the CC50 in series [4] (Table 1-3 (therapeutic effect)), in series [7] and in series [8] were 22.2 µM, 12.8 µM and 22.2 µM, respectively. In addition, the CC50 at 2 h in series [4] turned out to be 22.2 µM; in series [7], 12.8 µM.
As to `O=C1N=C(NS(=O)(=O)c2cccc3ccccc23)S/C1=C\c1ccc(Cl)cc1` [Compound 4, Naphthalene-1-sulfonic acid [5-(4-chloro-benzylidene)-4-oxo-4,5-dihydro-thiazol-2-yl] amide], the IC50 in series [1] is over 2.47 µM; in series [2] (EV71 (SZ-98 strain)), 5.75 µM; in series [2] (Enterovirus, EV71), 5.75 µM; in series [3], over 2.47 µM; in series [5], over 7.41 µM; in series [6] it was over 7.41 µM. In addition, the “anti-EV71 activity (in words)” value in series [2] is “better anti-EV71 activity”. In addition, the CC50 at 2 h was 12.8 µM in series [4] and 4.28 µM in series [7]. Moreover, the values for the CC50 in series [4], in series [7] and in series [8] were 12.8 µM, 4.28 µM and 12.8 µM, respectively.
Regarding `O=C1N=C(NS(=O)(=O)c2cccc3ccccc23)S/C1=C\c1cccc(O)c1` [Compound 6, Naphthalene-1-sulfonic acid [5-(3-hydroxy-benzylidene)-4-oxo-4,5-dihydro-thiazol-2-yl] amide], the IC50 in series [1] is over 22.2 µM; in series [2] (EV71 (SZ-98 strain)) it was 15.4 µM; in series [3] it was over 22.2 µM; in series [5], over 22.2 µM; in series [6] it was over 22.2 µM. Also, in series [2], the “anti-EV71 activity (in words)” value is given as “better anti-EV71 activity”. The CC50 in series [4] (Table 1-3 (therapeutic effect)), in series [7] and in series [8] was 38.5 µM each time. Moreover, the CC50 at 2 h in series [4] and in series [7] was 38.5 µM throughout.
On to `COc1ccc(/C=C2\SC(NS(=O)(=O)c3cccc4ccccc34)=NC2=O)cc1O` [Compound 7, Naphthalene-1-sulfonic acid [5-(3-hydroxy-4-methoxy-benzylidene)-4-oxo-4,5-dihydro-thiazol-2-yl] amide], for which the IC50 in series [1] was over 2.47 µM; in series [2] (EV71 (SZ-98 strain)), over 0.82 µM; in series [3], over 2.47 µM; in series [5], over 2.47 µM; in series [6], over 0.82 µM. Also, the CC50 in series [4] (Table 1-3 (therapeutic effect)) amounted to 3.56 µM; in series [7], 7.41 µM; in series [8] it was 10.7 µM. The CC50 at 2 h worked out at 3.56 µM in series [4] and 7.41 µM in series [7].
As for `O=C1N=C(NS(=O)(=O)c2cccc3ccccc23)S/C1=C\c1ccc(O)c(Br)c1` [Compound 8, Naphthalene-1-sulfonic acid [5-(3-bromo-4-hydroxy-benzylidene)-4-oxo-4,5-dihydro-thiazol-2-yl] amide], the IC50 in series [1] is over 7.41 µM; in series [2] (EV71 (SZ-98 strain)) it was 22.2 µM; in series [3] it was over 7.41 µM; in series [5] it was over 2.47 µM; in series [6] it was over 22.2 µM. Also, the “anti-EV71 activity (in words)” value in series [2] was “better anti-EV71 activity”. Further, the CC50 turned out to be 66.7 µM in series [4] (Table 1-3 (therapeutic effect)), 12.8 µM in series [7] and 9.54 µM in series [8]. Also, the values for the CC50 at 2 h in series [4] and in series [7] were 66.7 µM and 12.8 µM, respectively.
`COc1cccc(OC)c1/C=C1\SC(NS(=O)(=O)c2cccc3ccccc23)=NC1=O` [Compound 9, Naphthalene-1-sulfonic acid [5-(2,6-dimethoxy-benzylidene)-4-oxo-4,5-dihydro-thiazol-2-yl] amide]: the IC50 in series [1] was over 22.2 µM; in series [2] (EV71 (SZ-98 strain)), over 7.41 µM; in series [3], over 22.2 µM; in series [5], over 22.2 µM; in series [6] it was over 7.41 µM. Besides, the results for the CC50 in series [4] (Table 1-3 (therapeutic effect)), in series [7] and in series [8] were 12.8 µM, 38.5 µM and 38.5 µM, respectively. Also, the CC50 at 2 h in series [4] amounted to 12.8 µM; in series [7], 38.5 µM.
Regarding `O=C1N=C(NS(=O)(=O)c2cccc3ccccc23)S/C1=C\c1ccc(-c2ccccc2)cc1` [Compound 11, Naphthalene-1-sulfonic acid (5-biphenyl-4-yl-methylene-4-oxo-4,5-dihydro-thiazol-2-yl) amide], the concentration for half-maximal inhibition (IC50) in series [1] was over 0.82 µM; in series [2] (EV71 (SZ-98 strain)), over 22.2 µM; in series [3] it was over 0.82 µM; in series [5] it was over 7.41 µM; in series [6], over 22.2 µM. In addition, the results for the CC50 in series [4] (Table 1-3 (therapeutic effect)), in series [7] and in series [8] were 46.2 µM, 3.56 µM and 32 µM, respectively. Besides, the CC50 at 2 h in series [4] was determined as 46.2 µM; in series [7], 3.56 µM.
Take `CC(=O)Nc1ccc(/C=C2\SC(NS(=O)(=O)c3cccc4ccccc34)=NC2=O)cc1` [Compound 12, Naphthalene-1-sulfonic acid [5-(4-acetylamino-benzylidene)-4-oxo-4,5-dihydro-thiazol-2-yl] amide]: the IC50 in series [1], in series [2] (EV71 (SZ-98 strain)), in series [3], in series [5] and in series [6] was over 22.2 µM each time. For the same molecule, the CC50 was 38.5 µM in series [4] (Table 1-3 (therapeutic effect)), 32 µM in series [7] and 38.5 µM in series [8]. Moreover, the CC50 at 2 h in series [4] worked out at 38.5 µM; in series [7], 32 µM.
